Source: patent US20210198277A1, “AMINE-SUBSTITUTED ARYL OR HETEROARYL COMPOUNDS” (Epizyme, Inc., priority 2016, published 2021)

Assays:
human EHMT2 913-1193 = biological target: T1, human EHMT2 913-1193 (Homo sapiens, UniProt Q96KQ7); test: EHMT2 enzyme assay on histone peptide substrate (EHMT2 PEP); type: biochemical; conditions: Table VII; read-out: EHMT2 PEP IC50
T1 construct: recombinant purified human EHMT2 913-1193, Viva; purchased Viva
T1 sequence (Q96KQ7 913-1193): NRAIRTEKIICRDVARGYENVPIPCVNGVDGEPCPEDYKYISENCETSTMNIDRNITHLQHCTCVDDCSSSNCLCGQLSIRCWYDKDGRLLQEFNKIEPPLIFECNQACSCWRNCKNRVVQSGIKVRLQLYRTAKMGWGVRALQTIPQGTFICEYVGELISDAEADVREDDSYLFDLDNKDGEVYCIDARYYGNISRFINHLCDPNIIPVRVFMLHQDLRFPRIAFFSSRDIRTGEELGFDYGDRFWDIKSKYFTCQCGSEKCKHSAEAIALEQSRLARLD
Summary of the method: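 Compounds were tested as 3-fold dilutions, 10 points from a 50 μM final top (2% DMSO), after 30-min preincubation with 0.031 nM enzyme in Bicine buffer pH 7.5. Transfer of ^3H-methyl from ^3H-SAM to biotinylated histone peptide ran 60 min at room temperature and was detected by streptavidin Flashplate scintillation.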

EHMT1 = biological target: T2, EHMT1 (Homo sapiens, UniProt Q9H9B1); test: EHMT1 enzyme assay on peptide substrate (EHMT1 PEP); type: biochemical; conditions: Table VII; read-out: EHMT1 PEP IC50
T2 sequence (Q9H9B1 1-1298): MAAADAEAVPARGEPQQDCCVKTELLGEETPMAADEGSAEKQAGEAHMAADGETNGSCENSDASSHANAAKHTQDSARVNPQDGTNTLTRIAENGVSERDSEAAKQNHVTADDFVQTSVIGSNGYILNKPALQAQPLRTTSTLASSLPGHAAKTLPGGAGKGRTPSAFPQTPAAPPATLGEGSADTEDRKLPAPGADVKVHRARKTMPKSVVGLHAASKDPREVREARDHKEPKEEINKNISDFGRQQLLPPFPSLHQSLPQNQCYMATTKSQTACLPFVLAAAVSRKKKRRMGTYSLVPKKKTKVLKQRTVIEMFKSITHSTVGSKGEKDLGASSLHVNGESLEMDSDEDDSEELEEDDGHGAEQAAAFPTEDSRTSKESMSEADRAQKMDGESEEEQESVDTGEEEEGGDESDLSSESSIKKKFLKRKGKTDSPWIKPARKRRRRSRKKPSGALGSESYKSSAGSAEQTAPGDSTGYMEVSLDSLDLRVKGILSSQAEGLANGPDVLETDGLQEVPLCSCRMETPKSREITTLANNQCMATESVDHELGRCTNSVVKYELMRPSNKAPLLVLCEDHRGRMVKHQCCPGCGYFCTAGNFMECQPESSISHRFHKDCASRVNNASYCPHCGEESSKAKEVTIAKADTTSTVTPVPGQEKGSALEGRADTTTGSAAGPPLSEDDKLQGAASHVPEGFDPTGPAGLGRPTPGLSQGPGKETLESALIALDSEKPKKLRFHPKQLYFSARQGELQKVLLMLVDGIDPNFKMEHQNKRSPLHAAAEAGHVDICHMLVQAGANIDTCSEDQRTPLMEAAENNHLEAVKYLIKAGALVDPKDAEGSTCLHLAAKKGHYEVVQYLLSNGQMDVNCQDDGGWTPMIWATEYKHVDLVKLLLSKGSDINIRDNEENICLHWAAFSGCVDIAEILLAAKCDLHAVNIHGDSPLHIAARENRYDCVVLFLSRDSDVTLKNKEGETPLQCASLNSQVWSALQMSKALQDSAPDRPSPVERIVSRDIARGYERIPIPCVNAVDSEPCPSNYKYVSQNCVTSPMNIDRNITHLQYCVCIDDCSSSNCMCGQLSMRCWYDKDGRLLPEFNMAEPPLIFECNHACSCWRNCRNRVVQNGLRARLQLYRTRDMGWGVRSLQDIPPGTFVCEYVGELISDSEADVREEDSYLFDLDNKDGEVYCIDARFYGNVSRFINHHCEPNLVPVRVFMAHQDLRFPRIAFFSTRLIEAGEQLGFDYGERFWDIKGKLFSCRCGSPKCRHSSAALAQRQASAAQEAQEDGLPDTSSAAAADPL

Row | IC50 (human EHMT2 913-1193) | IC50 (EHMT1) | Compound
1 | < 100 nM | < 100 nM | CNc1cc(C)nc(Nc2ccc(OC)c(CNCCN3CCC3)c2)n1 [Compound 1081]
2 | 1000 to 10000 nM | 1000 to 10000 nM | CNc1ccnc(Nc2ccc(OC)c(OC[C@H](CN3CCCC3)OC)c2)n1 [Compound 1082]
3 | 100 to 1000 nM | 100 to 1000 nM | CNc1ccnc(Nc2ccc(OC)c(OC[C@@H](CN3CCCC3)OC)c2)n1 [Compound 1083]
4 | > 10000 nM | > 10000 nM | CNC[C@@H](COc1cc(Nc2nccc(NC)n2)ccc1OC)OC [Compound 1084]
5 | 100 to 1000 nM | < 100 nM | CNc1ccnc(Nc2ccc(OC)c(OCC(C)CN3CCC3)c2)n1 (stereo not drawn) [Compound 1085]
6 | 1000 to 10000 nM | 1000 to 10000 nM | CNCC(C)COc1cc(Nc2nccc(NC)n2)ccc1OC (stereo not drawn) [Compound 1086]
7 | 1000 to 10000 nM | 100 to 1000 nM | CNc1ccnc(Nc2ccc(OC)c(OCC[C@@H]3CCCN3)c2)n1 [Compound 1087]
8 | < 100 nM | < 100 nM | CNc1cc(C)c2cc(OC)c(OC[C@H](C)CN3CCC3)cc2n1 [Compound 1088]
9 | 100 to 1000 nM | < 100 nM | CNc1cc(C)nc(Nc2cnc(OC)c(OC[C@H](O)CN3CCC3)c2)n1 [Compound 1089]
10 | 100 to 1000 nM | 100 to 1000 nM | CNCC(C)NCc1cc(Nc2nc(C)cc(NC)n2)ccc1OC (stereo not drawn) [Compound 1090]
11 | 100 to 1000 nM | < 100 nM | CNc1cc(C2CCOCC2)c2cc(OC)c(OCCCN3CC(O)C3)cc2n1 [Compound 1091]
12 | 1000 to 10000 nM | 1000 to 10000 nM | CNc1ccnc(Nc2ccc(OC)c(OC[C@@H](C)CN3CCC3)c2)n1 [Compound 1092]
13 | 100 to 1000 nM | < 100 nM | CNc1ccnc(Nc2ccc(OC)c(OC[C@H](O)CN3CCC3)c2)n1 [Compound 1093]
14 | 100 to 1000 nM | < 100 nM | CNc1cc(C)nc(Nc2ccc(OC)c(CNCCN3CC[C@@H](F)C3)c2)n1 [Compound 1094]
15 | 100 to 1000 nM | 100 to 1000 nM | CNCCNC(C)c1cc(Nc2nc(C)cc(NC)n2)ccc1OC (stereo not drawn) [Compound 1095]
16 | > 10000 nM | > 10000 nM | CCN1CCC(O)(COc2cc(Nc3nccc(NC)n3)ccc2OC)C1 (stereo not drawn) [Compound 1096]
17 | > 10000 nM | 1000 to 10000 nM | CNc1ccnc(Nc2ccc(OC)c(OCC3(O)CCN(C)C3)c2)n1 (stereo not drawn) [Compound 1097]
18 | < 100 nM | < 100 nM | CNc1ccnc(Nc2cnc(OC)c(OC[C@@H]3CCN(C4CCC4)C3)c2)n1 [Compound 1098]
19 | 100 to 1000 nM | < 100 nM | CNc1cc(C)nc(Nc2ccc(OC)c(OC[C@H](O)CN3CC(C)C3)c2)n1 [Compound 1099]
20 | 100 to 1000 nM | 100 to 1000 nM | CNc1cc(C)nc(Nc2ccc(OC)c(OC[C@H](O)CN3CC(C)C3)c2)n1 [Compound 1100]
21 | < 100 nM | < 100 nM | CNc1cc(C)nc(Nc2ccc(OC)c(CNCCN(C)C)c2)n1 [Compound 1101]
22 | < 100 nM | < 100 nM | CNC[C@H](C)NCc1cc(Nc2nc(C)cc(NC)n2)ccc1OC [Compound 1102]
23 | 1000 to 10000 nM | 1000 to 10000 nM | CNC[C@@H](C)NCc1cc(Nc2nc(C)cc(NC)n2)ccc1OC [Compound 1103]
24 | < 100 nM | < 100 nM | CNc1cc(C)nc(Nc2ccc(OC)c(COCCN3CCCC3)c2)n1 [Compound 1104]
25 | 100 to 1000 nM | 100 to 1000 nM | CNc1cc(C)nc(Nc2ccc(OC)c(COCCN(C)C)c2)n1 [Compound 1105]
26 | < 100 nM | < 100 nM | CCNc1cc(C)nc(Nc2ccc(OC)c(OC[C@H](O)CN3CCCC3)c2)n1 [Compound 1106]
27 | < 100 nM | < 100 nM | CNc1cc(C2CCOCC2)c2cc(OC)c(OC[C@H](O)CN3CCCC3)cc2n1 [Compound 1107]
